Laboratory results: patent US9216173B2, “2-Pyridyl carboxamide-containing spleen tyrosine kinase (SYK) inhibitors” (Merck Sharp & Dohme Corp., priority 2011, dated 2015)

Target: T1, recombinant human GST-SYK (Homo sapiens, UniProt P43405)
T1 construct: purchased Carna Biosciences 08-176
Assay: Homogeneous Time-Resolved Fluorescence (HTRF) assay for the recombinant human Syk enzyme
Type: biochemical
Conditions: GST-hSYK 5 pM, ATP 25 μM, 10-dose titration 10 μM to 0.508 nM; read-out: IC50
Method: Homogeneous Time-Resolved Fluorescence (HTRF) Assay for the Recombinant Human Syk Enzyme
A recombinant GST-hSYK fusion protein was used to measure potency of compounds to inhibit human Syk activity. […] Final volume of the reaction was 10 μL. Phosphorylation of the peptide was allowed to proceed for 45 minutes at room temperature. To quench the reaction and detect the phosphorylated product, 2 nM of a Europium-anti-phosphotyrosine antibody (Perkin Elmer #AD0161) and 70 nM SA-APC (Perkin-Elmer #CR130-100) were added together in 15 mM Tris pH 7.5, 40 mM EDTA, 0.01% tween 20. Final volume of the quenching solution was 10 μL. The resulting HTRF signal was measured after 30 minutes on an EnVision (Perkin-Elmer) reader using a time-resolved fluorescence protocol.

IC50 | Compound
340 nM | Cn1ccc(Nc2cc(N[C@@H]3CS(=O)(=O)CC[C@@H]3N)cnc2C(N)=O)n1 (relative stereo) [Example 1.89, rel-5-{[(3S,4S)-4-amino-1,1-dioxidotetrahydro-2H-thiopyran-3-yl]amino}-3-[(1-methyl-1H-pyrazol-3-yl)amino]pyridine-2-carboxamide]
63 nM | Cn1ccc(Nc2cc(N[C@H]3[C@@H](N)CCCC3(F)F)cnc2C(N)=O)n1 [Example 1.86, 5-{[(1S,6S)-6-amino-2,2-difluorocyclohexyl]amino}-3-[(1-methyl-1H-pyrazol-3-yl)amino]pyridine-2-carboxamide]
0.53 nM | Cc1ccc(Nc2cc(N[C@@H]3CCCC[C@@H]3N)cnc2C(N)=O)nc1C [Example 1.6, 5-{[(1R,2S)-2-aminocyclohexyl]amino}-3-[(5,6-dimethylpyridin-2-yl)amino)pyridine-2-carboxamide]

Same assay, conditions: GST-hSYK 5 pM, ATP 25 μM, 10-dose titration 10 μM to 0.508 nM; read-out: rhSYK Activity (IC50 rating)

Compound | IC50
CCc1cccc(Nc2cc(NC(CC)CN)cnc2C(N)=O)n1 (centres unmarked) [Example 1.97, 5-{[1-(aminomethyl)propyl]amino}-3-[(6-ethylpyridin-2-yl)amino]pyridine-2-carboxamide] | < 10 nM
Cc1ccc(-n2nc(Nc3cc(N[C@@H]4CCCC[C@@H]4N)cnc3C(N)=O)cc2C)cc1 [Example 1.79, 5-{[(1R,2S)-2-aminocyclohexyl]amino}-3-{[5-methyl-1-(4-methylphenyl)-1H-pyrazol-3-yl]amino}pyridine-2-carboxamide] | < 10 nM
Cc1cc(Cl)nc(Nc2cc(N[C@@H]3CCCC[C@@H]3N)cnc2C(N)=O)c1 [Example 1.38, 5-{[(1R,2S)-2-aminocyclohexyl]amino}-3-[(6-chloro-4-methylpyridin-2-yl)amino]pyridine-2-carboxamide] | < 10 nM
Cc1cccc(Nc2cc(N[C@@H]3CCCC[C@@H]3N)cnc2C(N)=O)n1 [Example 1.7, 5-{[(1R,2S)-2-aminocyclohexyl]amino}-3-[(6-methylpyridin-2-yl)amino]pyridine-2-carboxamide] | < 10 nM
Cn1ccc(Nc2cc(N[C@@H]3CS(=O)(=O)CC[C@@H]3N)cnc2C(N)=O)n1 (relative stereo) [Example 1.89, rel-5-{[(3S,4S)-4-amino-1,1-dioxidotetrahydro-2H-thiopyran-3-yl]amino}-3-[(1-methyl-1H-pyrazol-3-yl)amino]pyridine-2-carboxamide] | 100 to 1000 nM
CCC(CN)Nc1cnc(C(N)=O)c(Nc2cccc(-n3nccn3)n2)c1 (centres unmarked) [Example 1.85, 5-{[1-(aminomethyl)propyl]amino}-3-{[6-(2H-1,2,3-triazol-2-yl)pyridin-2-yl]amino}pyridine-2-carboxanmle] | < 10 nM
COC[C@H](N)CNc1cnc(C(N)=O)c(Nc2ccn(-c3ccc(F)cc3)n2)c1 [Example 1.99, 5-{[(2R)-2-amino-3-methoxypropyl]amino}-3-{[1-(4-fluorophenyl)-1H-pyrazol-3-yl]amino}pyridine-2-carboxamide] | < 10 nM
NC(=O)c1ncc(N[C@@H]2CCCC[C@@H]2N)cc1Nc1ccn(-c2ccc(Cl)cc2)n1 [Example 1.63, 5-{[(1R,2S)-2-aminocyclohexyl]amino}-3-{[1-(4-chlorophenyl)-1H-pyrazol-3-yl]amino}pyridine-2-carboxamide] | < 10 nM
NC(=O)c1ncc(N[C@@H]2CCCC[C@@H]2N)cc1Nc1cccc(-c2cn(Cc3ccccc3)nn2)n1 [Example 1.101, 5-{[(1R,2S)-2-aminocyclohexyl]amino}-3-{[6-(1-benzyl-1H-1,2,3-triazol-4-yl)pyridin-2-yl]amino}pyridine-2-carboxamide] | < 10 nM
Cn1ccc(Nc2cc(N[C@H]3[C@@H](N)CCCC3(F)F)cnc2C(N)=O)n1 [Example 1.86, 5-{[(1S,6S)-6-amino-2,2-difluorocyclohexyl]amino}-3-[(1-methyl-1H-pyrazol-3-yl)amino]pyridine-2-carboxamide] | 10 to 100 nM
COc1ccc(Nc2cc(N[C@@H]3CCCC[C@@H]3N)cnc2C(N)=O)nc1C [Example 1.111, 5-{[(1R,2S)-2-aminocyclohexyl]amino}-3-[(5-methoxy-6-methylpyridin-2-yl)amino]pyridine-2-carboxamide] | < 10 nM
Cc1cc(C)nc(Nc2cc(N[C@@H](CC(C)C)C(N)=O)cnc2C(N)=O)c1 [Example 1.45, N^2-{6-carbamoyl-5-[(4,6-dimethylpyridin-2-yl)amino]pyridin-3-yl}- -leucinamide] | < 10 nM
NC(=O)c1ncc(N[C@@H]2CS(=O)(=O)CC[C@@H]2N)cc1Nc1ccn(-c2ccc(F)cc2)n1 (relative stereo) [Example 1.90, rel-5-{[(3S,4S)-4-amino-1,1-dioxidotetrahydro-2H-thiopyran-3-yl]amino}-3-{[1-(4 fluorophenyl)-1H-pyrazol-3-yl]amino}pyridine-2-carboxamide] | < 10 nM
COc1ccc(-n2ccc(Nc3cc(N[C@@H]4CCCC[C@@H]4N)cnc3C(N)=O)n2)cc1 [Example 1.72, 5-{[(1R,2S)-2-aminocyclohexyl]amino}-3-{[1-(4-methoxyphenyl)-1H-pyrazol-3-yl]amino}pyridine-2-carboxamide] | < 10 nM
NC(=O)c1ncc(N[C@H]2[C@@H](N)CCCC2(F)F)cc1Nc1cccc(-n2nccn2)n1 [Example 1.83, 5-{[(1S,6S)-6-amino-2,2-difluorocyclohexyl]amino}-3-{[6-(2H-1,2,3-triazol-2-yl)pyridin-2-yl]amino}pyridine-2-carboxamide] | < 10 nM
Cc1cc(C)nc(Nc2cc(NCC(N)C3CC3)cnc2C(N)=O)c1 (centres unmarked) [Example 1.118, 5-[(2-amino-2-cyclopropylethyl)amino]-3-[(4,6-dimethylpyridin-2-yl)amino]pyridine-2-carboxamide] | < 10 nM
Cc1ccc(-n2ccc(Nc3cc(N[C@@H]4CCCC[C@@H]4N)cnc3C(N)=O)n2)cc1C [Example 1.66, 5-{[(1R,2S)-2-aminocyclohexyl]amino}-3-{[1-(3,4-dimethylphenyl)-1H-pyrazol-3-yl]amino}pyridine-2-carboxamide] | < 10 nM
Cc1ccc(Nc2cc(N[C@@H]3CCCC[C@@H]3N)cnc2C(N)=O)nc1C [Example 1.6, 5-{[(1R,2S)-2-aminocyclohexyl]amino}-3-[(5,6-dimethylpyridin-2-yl)amino)pyridine-2-carboxamide] | < 10 nM
CN1CCN(Cc2cccc(Nc3cc(N[C@@H]4CCCC[C@@H]4N)cnc3C(N)=O)n2)CC1 [Example 1.61, 5-{[(1R,2S)-2-aminocyclohexyl]amino}-3-({6-[(4-methylpiperazin-1-yl)methyl]pyridin-2-yl}amino)pyridine-2-carboxamide] | 100 to 1000 nM
NC(=O)c1ncc(N[C@@H]2CCCC[C@@H]2N)cc1Nc1ccn(-c2ccc(F)cc2)n1 [Example 1.65, 5-{[(1R,2S)-2-aminocyclohexyl]amino}-3-{[1-(4-fluorophenyl)-1H-pyrazol-3-yl]amino}pyridine-2-carboxamide] | < 10 nM

Continued, values first:

IC50 | Compound
< 10 nM | Cc1nc(Nc2cc(N[C@@H]3CCCC[C@@H]3N)cnc2C(N)=O)ccc1-c1cccc(N2CCN(C)CC2)c1 [Example 3.14, 5-{[(1R,2S)-2-aminocyclohexyl]amino}-3-({6-methyl-5-[3-(4-methylpiperazin-1-yl)phenyl]pyridin-2-yl}amino)pyridine-2-carboxamide]
10 to 100 nM | CC(=O)NCC(N)CNc1cnc(C(N)=O)c(Nc2cc(C)cc(C)n2)c1 (centres unmarked) [Example 6.1, 5-{[3-(acetylamino)-2-aminopropyl]amino}-3-[(4,6-dimethylpyridin-2-yl)amino]pyridine-2-carboxamide]
10 to 100 nM | Cc1cc(C)nc(Nc2cc(NCCCN)cnc2C(N)=O)c1 [Example 14, 5-[(3-aminopropyl)amino]-3-[(4,6-dimethylpyridin-2-yl)amino]pyridine-2-carboxamide]
< 10 nM | Cc1cc(C)nc(Nc2cc(N[C@@H]3[C@H](N)CCCC3(F)F)cnc2C(N)=O)c1 [Example 2.5, 5-{[(1R,6R)-6-amino-2,2-difluorocyclohexyl]amino}-3-[(4,6-dimethylpyridin-2-yl)amino]pyridine-2-carboxamide]
100 to 1000 nM | NC(=O)c1ncc(N[C@@H]2CCCC[C@@H]2N)cc1Nc1cccc(CN2CCNCC2)n1 [Example 8, 5-{[(1R,2S)-2-aminocyclohexyl]amino}-3-{[6-(piperazin-1-ylmethyl)pyridin-2-yl]amino}pyridine-2-carboxamide]
< 10 nM | Cc1cc(-c2cccnc2)cc(Nc2cc(N[C@@H]3CCCC[C@@H]3N)cnc2C(N)=O)n1 [Example 4.2, 5-{[(1R,2S)-2-aminocyclohexyl]amino}-3-[(6′-methyl-3,4′-bipyridin-2′-yl)amino]pyridine-2-carboxamide]
< 10 nM | Cc1nc(Nc2cc(N[C@@H]3CCCC[C@@H]3N)cnc2C(N)=O)ccc1-c1ccc2c(=O)nc[nH]c2c1 [Example 3.21, 5-{[(1R,2S)-2-aminocyclohexyl]amino}-3-{[6-methyl-5-(4-oxo-1,4-dihydroquinazolin-7-yl)pyridin-2-yl]amino}pyridine-2-carboxamide]
< 10 nM | Cc1cc(Nc2cc(N[C@@H]3CCCC[C@@H]3N)cnc2C(N)=O)nc(C)n1 [Example 1.125, 5-{[(1R,2S)-2-aminocyclohexyl]amino}-3-[(2,6-dimethylpyrimidin-4-yl)amino]pyridine-2-carboxamide]
100 to 1000 nM | Cc1cc(C)nc(Nc2cc(NS(=O)(=O)CCN)cnc2C(N)=O)c1 [Example 19, 5-{[(2-aminoethyl)sulfonyl]amino}-3-[(4,6-dimethylpyridin-2-yl)amino]pyridine-2-carboxamide]
< 10 nM | Cc1nc(Nc2cc(N[C@@H]3CCCC[C@@H]3N)cnc2C(N)=O)ccc1-c1ccc(OC(F)F)cc1 [Example 3.10, 5-{[(1R,2S)-2-aminocyclohexyl]amino}-3-({5-[4-(difluoromethoxy)phenyl]-6-methylpyridin-2-yl}amino)pyridine-2-carboxamide]
< 10 nM | COc1ncc(-c2ccc(Nc3cc(N[C@@H]4CCCC[C@@H]4N)cnc3C(N)=O)nc2C)cn1 [Example 3.24, 5-{[(1R,2S)-2-aminocyclohexyl]amino}-3-{[5-(2-methoxypyrimidin-5-yl)-6-methylpyridin-2-yl]amino}pyridine-2-carboxamide]
< 10 nM | CC(C)(O)COCc1cccc(Nc2cc(N[C@@H]3CCCC[C@@H]3N)cnc2C(N)=O)n1 [Example 1.120, 5-{[(1R,2S)-2-aminocyclohexyl]amino}-3-({6-[(2-hydroxy-2-methylpropoxy)methyl]pyridin-2-yl}amino)pyridine-2-carboxamide]
